Laboratory results taken from PMC10066365, “Nemacol is a small molecule inhibitor of C. elegans vesicular acetylcholine transporter with anthelmintic potential” (Nature Communications, 2023).
“And” between values parts separate entries of the source, which are not always exact repeats. Identical values can stand only once.

How the values were obtained:
[1] = system: C. elegans; experiment: C. elegans motor phenotype scoring on solid media (Punc/jerky-unc, coiled, paralyzed), wild-type young adults; format: in vivo, Caenorhabditis elegans; details: for atypical locomotion (number of animals) / coiled (number of animals) / no phene (number of animals) / paralyzed (number of animals) / any phene: mean % fraction of young adults exhibiting any phenotype (coiled, jerky-Unc or paralyzed): one hour; for atypical locomotion (number of animals) / coiled (number of animals) / no phene (number of animals) / paralyzed (number of animals): young adults, 20 animals per trial, single technical replicate; for any phene: mean % fraction of young adults exhibiting any phenotype (coiled, jerky-Unc or paralyzed): mean of three biological replicates; for EC50: Caenorhabditis elegans, any motor phenotype after 1 h on solid media, ± 95% CI, read-out: C. elegans - motor disruption EC50
[2] = system: Dirofilaria immitis microfilariae; experiment: Dirofilaria immitis microfilariae immobility assay (DiroImager, 72 h); details: Dirofilaria immitis microfilariae
Summary of the method: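 Motility read after 72 h drug exposure with an image-based high-throughput plate imager, 1% DMSO medium serving as negative control. Missouri-isolate microfilariae, roughly 250 per well, freshly purified and cultured in supplemented RPMI 1640.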

[3] = system: Dirofilaria immitis L3/L4; experiment: Dirofilaria immitis L3/L4 motility assay (DiroImager, 72 h); details: Dirofilaria immitis L4
[4] = system: Pristionchus pacificus; experiment: Pristionchus pacificus motor disruption dose-response on solid media, 1 h; details: for mean % any phene (coiled, jerky-Unc or paralyzed): Pristionchus pacificus young adults; for mean % any phene (coiled, jerky-Unc or paralyzed) / mean % any phene: mean of three biological replicates; for EC50: Pristionchus pacificus, 1 h, read-out: P. pacificus motor disruption EC50; for mean % any phene: any phenotype (coiled, jerky-Unc or paralyzed) at one hour; for rep 1 no phene / rep 1 paralyzed / rep 2 atypical locomotion / rep 2 coiled / rep 2 no phene / rep 2 paralyzed / rep 3 atypical locomotion / rep 3 no phene / rep 3 paralyzed / rep 1 atypical locomotion / rep 1 coiled / rep 3 coiled: count of 20 animals per trial, one hour

Compound: FC(F)(F)c1cccc(N2CCN(C3CCCCCCC3)CC2)c1 [Nemacol-55]
- atypical locomotion (number of animals) ([1]; 3.75uM): 5 and 6 and 2 and 3 and 8
- coiled (number of animals) ([1]; 3.75uM): 0
- no phene (number of animals) ([1]; 3.75uM): 15 and 14 and 18 and 17 and 12
- paralyzed (number of animals) ([1]; 3.75uM): 0
- any phene: mean % fraction of young adults exhibiting any phenotype (coiled, jerky-Unc or paralyzed) ([1]; 3.75uM): 26.6667%
- atypical locomotion (number of animals) ([1]; 15uM): 11 and 15 and 8 and 9 and 19 and 18
- coiled (number of animals) ([1]; 15uM): 1 and 0 and 2
- no phene (number of animals) ([1]; 15uM): 8 and 4 and 12 and 11 and 1 and 0
- paralyzed (number of animals) ([1]; 15uM): 0 and 1
- any phene: mean % fraction of young adults exhibiting any phenotype (coiled, jerky-Unc or paralyzed) ([1]; 15uM): 70%
- atypical locomotion (number of animals) ([1]; 60uM): 18 and 17 and 16 and 11 and 15
- coiled (number of animals) ([1]; 60uM): 0 and 2 and 5 and 4 and 3
- no phene (number of animals) ([1]; 60uM): 0 and 2
- paralyzed (number of animals) ([1]; 60uM): 2 and 1 and 0 and 4
- any phene: mean % fraction of young adults exhibiting any phenotype (coiled, jerky-Unc or paralyzed) ([1]; 60uM): 96.6667%
- EC50 [1]: 7.9 ± 3.5 µM
- % effect (motility), DIROIM MF ([2]; 0.016 µM): 0%
- % effect (motility), DIROIM MF ([2]; 0.08 µM): 0%
- % effect (motility), DIROIM MF ([2]; 0.4 µM): 0%
- % effect (motility), DIROIM MF ([2]; 2 µM): 0%
- % effect (motility), DIROIM MF ([2]; 10 µM): 0%
- % effect (motility), DIROIM L4 ([3]; 10 µM): 15%
- % effect (motility), DIROIM L4 ([3]; 50 µM): 35%
- mean % any phene (coiled, jerky-Unc or paralyzed) ([4]; conc 3.75, observed at one hour): 5%
- mean % any phene (coiled, jerky-Unc or paralyzed) ([4]; conc 15, observed at one hour): 8.333%
- mean % any phene (coiled, jerky-Unc or paralyzed) ([4]; conc 60, observed at one hour): 59.1667%
- EC50 [4]: 49.2 ± 6.2 µM

Compound: Fc1ccccc1N1CCN(C2CCCCCC2)CC1 [Nemacol-56]
- atypical locomotion (number of animals) ([1]; 3.75uM): 2 and 3 and 12 and 10
- coiled (number of animals) ([1]; 3.75uM): 0
- no phene (number of animals) ([1]; 3.75uM): 18 and 17 and 8 and 10
- paralyzed (number of animals) ([1]; 3.75uM): 0
- any phene: mean % fraction of young adults exhibiting any phenotype (coiled, jerky-Unc or paralyzed) ([1]; 3.75uM): 25.8333%
- atypical locomotion (number of animals) ([1]; 15uM): 12 and 18 and 7 and 14 and 16
- coiled (number of animals) ([1]; 15uM): 0 and 2
- no phene (number of animals) ([1]; 15uM): 8 and 2 and 13 and 4
- paralyzed (number of animals) ([1]; 15uM): 0 and 2
- any phene: mean % fraction of young adults exhibiting any phenotype (coiled, jerky-Unc or paralyzed) ([1]; 15uM): 69.1667%
- atypical locomotion (number of animals) ([1]; 60uM): 2 and 3 and 10 and 0
- coiled (number of animals) ([1]; 60uM): 5 and 6 and 4 and 3 and 8
- no phene (number of animals) ([1]; 60uM): 0
- paralyzed (number of animals) ([1]; 60uM): 13 and 11 and 6 and 14 and 15 and 12
- any phene: mean % fraction of young adults exhibiting any phenotype (coiled, jerky-Unc or paralyzed) ([1]; 60uM): 100%
- EC50 [1]: 8 ± 3.3 µM
- % effect (motility), DIROIM MF ([2]; 0.016 µM): 0%
- % effect (motility), DIROIM MF ([2]; 0.08 µM): 0%
- % effect (motility), DIROIM MF ([2]; 0.4 µM): 0%
- % effect (motility), DIROIM MF ([2]; 2 µM): 0%
- % effect (motility), DIROIM MF ([2]; 10 µM): 0%
- % effect (motility), DIROIM L4 ([3]; 10 µM): 0%
- % effect (motility), DIROIM L4 ([3]; 50 µM): 15%
- EC50 [4]: 38.4 ± 4.7 µM
- mean % any phene ([4]; conc 3.75): 2.5%
- rep 1 no phene ([4]; conc 3.75): 20 and 18
- rep 1 paralyzed ([4]; conc 3.75): 0
- rep 2 atypical locomotion ([4]; conc 3.75): 0
- rep 2 coiled ([4]; conc 3.75): 0
- rep 2 no phene ([4]; conc 3.75): 20
- rep 2 paralyzed ([4]; conc 3.75): 0
- rep 3 atypical locomotion ([4]; conc 3.75): 0
- rep 3 no phene ([4]; conc 3.75): 20 and 19
- rep 3 paralyzed ([4]; conc 3.75): 0
- mean % any phene ([4]; conc 15): 0.8333%
- rep 1 atypical locomotion ([4]; conc 15): 0
- rep 1 coiled ([4]; conc 15): 0
- rep 1 no phene ([4]; conc 15): 20
- rep 1 paralyzed ([4]; conc 15): 0
- rep 2 coiled ([4]; conc 15): 0
- rep 2 no phene ([4]; conc 15): 19 and 20
- rep 2 paralyzed ([4]; conc 15): 0
- rep 3 atypical locomotion ([4]; conc 15): 0
- rep 3 coiled ([4]; conc 15): 0
- rep 3 no phene ([4]; conc 15): 20
- rep 3 paralyzed ([4]; conc 15): 0
- mean % any phene ([4]; conc 60): 85%
- rep 1 atypical locomotion ([4]; conc 60): 10
- rep 1 coiled ([4]; conc 60): 4 and 2
- rep 1 no phene ([4]; conc 60): 2
- rep 1 paralyzed ([4]; conc 60): 4 and 6
- rep 2 no phene ([4]; conc 60): 5 and 3
- rep 3 atypical locomotion ([4]; conc 60): 14 and 13
- rep 3 coiled ([4]; conc 60): 3 and 4
- rep 3 no phene ([4]; conc 60): 3
- rep 3 paralyzed ([4]; conc 60): 0

Compound: c1cc(N2CCN(CC3CCC3)CC2)ccn1 [Nemacol-60]
- atypical locomotion (number of animals) ([1]; 3.75uM): 0 and 2 and 3
- coiled (number of animals) ([1]; 3.75uM): 0
- no phene (number of animals) ([1]; 3.75uM): 20 and 18 and 17
- paralyzed (number of animals) ([1]; 3.75uM): 0
- any phene: mean % fraction of young adults exhibiting any phenotype (coiled, jerky-Unc or paralyzed) ([1]; 3.75uM): 4.167%
- atypical locomotion (number of animals) ([1]; 15uM): 0 and 10 and 15
- coiled (number of animals) ([1]; 15uM): 0
- no phene (number of animals) ([1]; 15uM): 20 and 9 and 5
- paralyzed (number of animals) ([1]; 15uM): 0 and 1
- any phene: mean % fraction of young adults exhibiting any phenotype (coiled, jerky-Unc or paralyzed) ([1]; 15uM): 21.6667%
- atypical locomotion (number of animals) ([1]; 60uM): 0 and 2 and 4 and 16 and 14
- coiled (number of animals) ([1]; 60uM): 0
- no phene (number of animals) ([1]; 60uM): 20 and 18 and 16 and 4 and 6
- paralyzed (number of animals) ([1]; 60uM): 0
- any phene: mean % fraction of young adults exhibiting any phenotype (coiled, jerky-Unc or paralyzed) ([1]; 60uM): 30%
- EC50 [1]: > 60 µM
- % effect (motility), DIROIM MF ([2]; 0.016 µM): 0%
- % effect (motility), DIROIM MF ([2]; 0.08 µM): 0%
- % effect (motility), DIROIM MF ([2]; 0.4 µM): 0%
- % effect (motility), DIROIM MF ([2]; 2 µM): 0%
- % effect (motility), DIROIM MF ([2]; 10 µM): 0%
- % effect (motility), DIROIM L4 ([3]; 10 µM): 0%
- % effect (motility), DIROIM L4 ([3]; 50 µM): 10%
- mean % any phene ([4]; conc 3.75): 0%
- rep 1 atypical locomotion ([4]; conc 3.75): 0
- rep 1 coiled ([4]; conc 3.75): 0
- rep 1 no phene ([4]; conc 3.75): 20
- rep 1 paralyzed ([4]; conc 3.75): 0
- rep 2 atypical locomotion ([4]; conc 3.75): 0
- rep 2 coiled ([4]; conc 3.75): 0
- rep 2 no phene ([4]; conc 3.75): 20
- rep 2 paralyzed ([4]; conc 3.75): 0
- rep 3 atypical locomotion ([4]; conc 3.75): 0
- rep 3 coiled ([4]; conc 3.75): 0
- rep 3 no phene ([4]; conc 3.75): 20
- rep 3 paralyzed ([4]; conc 3.75): 0
- mean % any phene ([4]; conc 15): 0%
- rep 1 atypical locomotion ([4]; conc 15): 0
- rep 1 coiled ([4]; conc 15): 0
- rep 1 no phene ([4]; conc 15): 20
- rep 1 paralyzed ([4]; conc 15): 0
- rep 2 atypical locomotion ([4]; conc 15): 0
- rep 2 coiled ([4]; conc 15): 0
- rep 2 no phene ([4]; conc 15): 20
- rep 2 paralyzed ([4]; conc 15): 0
- rep 3 atypical locomotion ([4]; conc 15): 0
- rep 3 coiled ([4]; conc 15): 0
- rep 3 no phene ([4]; conc 15): 20
- rep 3 paralyzed ([4]; conc 15): 0
- mean % any phene ([4]; conc 60): 0%
- rep 1 atypical locomotion ([4]; conc 60): 0
- rep 1 coiled ([4]; conc 60): 0
- rep 1 no phene ([4]; conc 60): 20
- rep 1 paralyzed ([4]; conc 60): 0
- rep 2 atypical locomotion ([4]; conc 60): 0
- rep 2 coiled ([4]; conc 60): 0
- rep 2 no phene ([4]; conc 60): 20
- rep 2 paralyzed ([4]; conc 60): 0
- rep 3 atypical locomotion ([4]; conc 60): 0
- rep 3 coiled ([4]; conc 60): 0
- rep 3 no phene ([4]; conc 60): 20
- rep 3 paralyzed ([4]; conc 60): 0
